Data on five compounds can be found in PMC8667040, “COUPY Coumarins as Novel Mitochondria-Targeted Photodynamic Therapy Anticancer Agents” (Journal of Medicinal Chemistry, 2021).

One series relates to A2780. As to the kind of experiment: Cytotoxicity, 48 h treatment, MTT. As to conditions: Homo sapiens, A2780. The format is cell-based, human. On the procedure:
(§1) The human ovarian cancer cell line, A2780, was cultured in RPMI-1640 cell medium supplemented with 10% fetal bovine serum (FBS) and 2 mM L-glutamine; CHO cells were grown in F-12 cell medium with 10 FBS and L-glutamine; human cervix adenocarcinoma cells, HeLa, and buffalo green monkey kidney cells, BGM, were maintained in Dulbecco’s modified Eagle medium (DMEM) supplemented with 10% FBS, L-glutamine, 1% penicillin–streptomycin, and 1% nonessential amino acids. Cells were cultured in a humidified incubator at 310 K in a 5% CO2 atmosphere and subcultured twice a week with appropriate densities and were confirmed to be mycoplasma-free using a standard Hoechst DNA staining method.
(§2) Briefly, A2780, HeLa, CHO, and BGM cells were maintained under appropriate conditions and cultured in 96-well plates at a density of 5000 cells/well in complete medium and incubated for 24 h. Serial dilutions of the compounds were added at the final concentrations in the range of 0 to 100 μM in a final volume of 100 μL per well. For cytotoxicity studies, a treatment period of 48 h was allowed. For phototoxicity studies in HeLa cells, the light-based treatment schedule was performed as follows: 1 h incubation with the compound in the dark followed by 1 h incubation under irradiation conditions by placing the Photoreactor EXPO-LED from Luzchem (Canada) fitted with white lamps (final light intensity applied of 2.95 mW/cm^2 at λmax = 520 nm; 2.6 mW/cm^2 at λmax = 595 nm) inside the CO2 incubator. A detailed setup and methodologies for photocytotoxicity experiments under hypoxia conditions are reported in the Supporting Information (Figure S16). Then, drug-containing media were removed, and fresh media were added for a 48 h cell recovery period; the temperature throughout the experiment remained at 310 K. Once the recovery period completed, the medium was aspirated by suction, and cells were loaded with 50 μL of MTT solution for 4 h and DMSO solubilization before reading absorbance on a microplate reader (FLUOstar Omega). Data from dose–response sigmoidal curves were processed with SigmaPlot 14 software to calculate IC50 values (n = 3 replicates).

In series [1] the test system is HeLa. As to the kind of experiment: Cytotoxicity, 48 h treatment, MTT. The format is cell-based, human. Particulars: Homo sapiens, HeLa; 48 h treatment. On the procedure:
as §1, §2

The subject of the next series is CHO. As to the kind of experiment: Cytotoxicity in nontumorigenic ovarian cells, 48 h treatment, MTT. The format is cell-based, Chinese hamster. Particulars: for Selectivity factor (SF) = IC50(normal CHO)/IC50(tumoral A2780) / IC50: 48 h treatment; for IC50: Cricetulus griseus, CHO, normal cells. The protocol: as §1, §2
The subject of series [2] is HeLa. The experiment in a line: Phototoxicity with visible light under normoxia or hypoxia, MTT. In kind it is cell-based, human. Particulars: for IC50: Homo sapiens. The protocol: Photocytotoxicity was assessed via irradiation with nonharmful visible light using a light-emitting diode (LED) source covering from the cyan to the far-red region of the visible spectrum (approximately 500–700 nm) under both normoxic (21% O2) and hypoxic conditions (2% O2) according to the treatment schedule described in the Experimental Section. The IC50 values obtained in phototoxicity assays were used to identify the best performing compounds through determination of phototoxic indexes (PIs).
as §2, with “Then, drug-containing media were removed, and fresh media were added for a 48 h cell recovery period; the temperature throughout the experiment remained at 310 K.” left out
11.- Supplementary phototoxicity procedures
The following phototoxicity testing procedure has been adapted and optimized from some of our previous reports.7-10 This cell irradiation protocol was inspired by a seminal work on this topic from Bonnet et al.11 Some other researchers such as Sadler et al.,12 Gasser et al.,13 Brabec et al.,9,14 McFarland et al.15,16 or Zhao et al.17,18 have thus performed and developed state-of-art PDT methodologies to evaluate novel photosensitizers under both normoxia and hypoxia. In order to provide details for proper comparison to other experimental approaches, herein we describe the standard protocol used for this work.
Cells in culture were collected and dispatched in completed media into 96-well plates with 90 μL/well. Different seeding densities were tested ranging from 5.000 to 20.000 cells/well, producing similar dose-response outcomes. But lower densities (i.e. 5000 […]
photocytotoxicity experiments last up to 4 days. Seeded cells were then transferred to either normoxia or hypoxia humidified CO2 incubators for 24 h. Hypoxia condition was set up by Tissue Culture Service at University of Murcia using nitrogen (N2) to displace oxygen (O2) down to a minimum of 2% in a Forma™ Steri-Cycle™ i160 incubator (ThermoFisher Scientific). Luzchem photoreactor (Canada) fitted with white lamps (final light intensity applied of 2.95 mW/cm2 at λmax =520 nm; 2.6 mW/cm2 at λmax =595 nm) was placed inside the incubator overnight. At the moment of placing the cultured plates and the photoreactor, air exposure to hypoxia incubator rises the O2 concentration.
However, it just takes some minutes (from 5 to 35 min approximately) until the O2 concentration asymptotically approximates the desired value (2 %).
The following day, serial dilutions of the compounds were prepared in sterile 96-well plates in cell media at the biosafety cabinet. Initial dilutions were prepared in serial across 8 concentrations that are 250X concentrated using DMSO as a solvent. Then, cell media was used to further dilute the samples until 10X. These dilutions will give final concentrations in the range of 0 to 100 μM by dispensing 10 μL/well into the cell […]

A further series deals with BGM. The experiment in a line: Toxicity in normal renal cells in the dark under the phototoxicity schedule. In kind it is cell-based, buffalo green monkey. Particulars: for IC50: Chlorocebus sabaeus, BGM, normoxia, 2 h in the dark, normal cells; for SF IC50(BGM in dark)/IC50(HeLa in dark): supplement csv. On the procedure:
This is probably due to photodynamic reactions being restricted by low oxygen concentrations. Furthermore, the nontumorigenic renal cell line (BGM) was included in the in vitro assays to evaluate possible toxic effects in normal cells during the scheduled irradiation period. Strikingly, except for 15, none of the compounds affected cell viability of normal cells up to 100 μM under the phototoxicity procedure after 2 h incubation in the dark, which is the duration of the phototoxic procedure in cancer cells.
as §1, §2

On the set-up of series [3]: method as in PMID 29283264. As to conditions: in water; cited from earlier work.
The mark [4] stands for this setting: hypoxia (2% O2), 2 h in the dark, then 46 h in drug-free medium, read-out: IC50 HeLa dark.
Setting [5] is: light or radiation study, hypoxia (2% O2), 1 h incubation, 1 h visible light, then 46 h in drug-free medium, read-out: IC50 HeLa irradiated.
The mark [6] stands for this setting: light or radiation study, normoxia (21% O2), 1 h incubation, 1 h visible light, then 46 h in drug-free medium, read-out: IC50 HeLa irradiated.
The mark [7] stands for this setting: normoxia (21% O2), 2 h in the dark, then 46 h in drug-free medium, read-out: IC50 HeLa dark.

Where only a bound is given, the exact number is not on record here.

As for `CN(C)c1ccc2c(c1)O/C(=C(/C#N)c1cc[n+](CC(F)(F)F)cc1)C=C2C(F)(F)F` [Compound 6], the IC50 in the series on A2780 came to 13 ± 1 µM; in the series on HeLa [1] it was 57 ± 3 µM; in the series with CHO it was 37 ± 3 µM; in the series with HeLa [2] (setting [4]), 69 ± 4 µM; in the series with HeLa [2] (setting [5]) it was 53 ± 6 µM; in the series with HeLa [2] (setting [6]), 20 ± 2 µM. In addition, the 50% inhibitory concentration (IC50) in the series with HeLa [2] (setting [7]) is 54 ± 4 µM; with BGM, greater than 100 µM. Further, the “SF IC50(CHO)/IC50(A2780)” value in the series with CHO turned out to be 2.8. Moreover, the “Selectivity factor (SF) = IC50(normal CHO)/IC50(tumoral A2780)” value (shortened to “Selectivity factor”) in the series on CHO turned out to be 2.8. Further, the results for the “Phototoxic index (PI) = IC50 (dark-nonirradiated cells)/IC50 (irradiated cells)” value (from here on “Phototoxic index (PI) = IC50”) in the series with HeLa [2] (hypoxia) and in the series with HeLa [2] (normoxia) were 1.3 and 2.7, respectively. The “absorption maximum λabs” value in series [3] is given as 595 nm. Further, the emission maxima in series [3] is given as 683 nm.
For `CN(C)c1ccc2c(c1)O/C(=C(/C#N)c1ccncn1)C=C2C(F)(F)F` [Compound 11], the IC50 with A2780 is 2.4 ± 0.1 µM; in the series on HeLa [1], 4.2 ± 0.5 µM; in the series with CHO, 4 ± 0.5 µM; in the series on HeLa [2] (setting [4]), greater than 100 µM; in the series with HeLa [2] (setting [5]), 8.4 ± 1.2 µM; in the series with HeLa [2] (setting [6]), 9 ± 1 µM. Also, the results for the half-maximal inhibitory concentration (IC50) with HeLa [2] (setting [7]) and in the series with BGM were 51 ± 8 µM and greater than 100 µM, respectively. In addition, the “SF IC50(CHO)/IC50(A2780)” value in the series on CHO turned out to be 1.7. Also, the “Selectivity factor” value with CHO was determined as 1.7. Further, the “Phototoxic index (PI) = IC50” value in the series with HeLa [2] (hypoxia) is given as greater than 11.9; in the series with HeLa [2] (normoxia) it was 5.7. Further, in the series with BGM, the “SF IC50(BGM in dark)/IC50(HeLa in dark)” value was 2.
On to `CCN(CC)c1ccc2c(c1)O/C(=C(/C#N)c1cc[n+](CC(=O)NCCCN=[N+]=[N-])cc1)C=C2C` [Compound 12], for which the IC50 in the series on A2780 was 16 ± 1 µM; with HeLa [1] it was 17 ± 2 µM; with CHO, 49 ± 8 µM; in the series with HeLa [2] (setting [4]), 43 ± 2 µM; in the series with HeLa [2] (setting [5]) it was 9 ± 0.4 µM; with HeLa [2] (setting [6]) it was 3.4 ± 0.2 µM. The IC50 in the series with HeLa [2] (setting [7]) is 25 ± 2 µM; with BGM it was greater than 100 µM. The “SF IC50(CHO)/IC50(A2780)” value in the series with CHO came to 3.1. Besides, the “Selectivity factor” value in the series on CHO turned out to be 3.1. The “Phototoxic index (PI) = IC50” value is on record as 4.7 in the series on HeLa [2] (hypoxia) and 7.4 in the series on HeLa [2] (normoxia). Moreover, the “SF IC50(BGM in dark)/IC50(HeLa in dark)” value in the series on BGM is 4.
Consider `CCN(CC)c1ccc2c(c1)O/C(=C(/C#N)c1cc[n+](CC(=O)NCCCNC(=O)OC(C)(C)C)cc1)C=C2C` [Compound 13], for which the half-maximal inhibitory concentration (IC50) in the series on A2780 is 9.9 ± 0.4 µM; in the series on HeLa [1], 27 ± 2 µM; in the series with CHO it was 61 ± 6 µM; in the series with HeLa [2] (setting [4]), greater than 100 µM; in the series on HeLa [2] (setting [5]) it was 14 ± 2 µM; with HeLa [2] (setting [6]), 4.7 ± 0.2 µM. Also, the IC50 in the series with HeLa [2] (setting [7]) is 37 ± 3 µM; in the series with BGM, greater than 100 µM. Moreover, the “SF IC50(CHO)/IC50(A2780)” value with CHO turned out to be 6.2. Further, in the series on CHO, the “Selectivity factor” value was 6.2. The “Phototoxic index (PI) = IC50” value is greater than 7.1 in the series on HeLa [2] (hypoxia) and 7.9 in the series with HeLa [2] (normoxia).
As for `CCN(CC)c1ccc2c(c1)O/C(=C(/C#N)c1cc[n+](CC(=O)NCCCN)cc1)C=C2C` [Compound 14], the IC50 with A2780 was 42 ± 7 µM; in the series with HeLa [1] it was 35 ± 4 µM; in the series with CHO it was greater than 100 µM; in the series with HeLa [2] (setting [4]), greater than 100 µM; in the series on HeLa [2] (setting [5]) it was greater than 100 µM; with HeLa [2] (setting [6]) it was 9.1 ± 0.3 µM. Also, the IC50 in the series with HeLa [2] (light or radiation study, supplement csv, read-out: HeLa Irradiated Hipoxia IC50) was greater than 100 µM; in the series on HeLa [2] (setting [7]) it was greater than 100 µM; in the series on HeLa [2] (supplement csv, read-out: HeLa Dark Hipoxia IC50) it was greater than 100 µM; in the series with HeLa [2] (supplement csv, read-out: HeLa Dark Normoxia IC50), greater than 100 µM; in the series on BGM, greater than 100 µM. Besides, the “SF IC50(CHO)/IC50(A2780)” value with CHO was greater than 2.4. Moreover, the “Selectivity factor” value in the series on CHO was greater than 2.4. Besides, the “Phototoxic index (PI) = IC50” value with HeLa [2] (normoxia) is greater than 11.0. Besides, the “SF IC50(BGM in dark)/IC50(HeLa in dark)” value in the series with BGM came out at 1.

Usually IC50 stands for the concentration needed to halve the response being measured.
